The test system of one assay is A2780. Briefly: Growth inhibition (sulforhodamine B assay), single agents and combination. In kind it is cell-based. The following applies: Homo sapiens, read-out: 50% Inhibitory Concentrations (IC50) at 72 h. The procedure: The following human ovarian carcinoma cell lines were tested: A2780 was obtained from Dr. R. F. Ozols (National Cancer Institute, Bethesda, Md., USA); IGROV-1 was obtained from Dr. J. Benard (Villejuif, France); OVCA432 was obtained from Dr. R. C. Knapp (Boston, Mass., USA); OAW42 and SKOV-3 were purchased from ATCC (Rockville, Md., USA). A2780/HPR, a 4-HPR— resistant ovarian carcinoma cell line, was obtained in our laboratory by continuous exposure of A2780 cells to increasing concentrations of 4-EPR as previously described (Appierto et al., Br. J. Cancer, 2001, 84:1528–1534; Prinetti et al., J. Biol. Chem., 2003, 278:5574–5583). Briefly, cells surviving 60 transplants in 4-HPR —containing medium (3 transplants at 1 μM, 11 transplants at 2 μM, 8 transplants at 3 μM, and 38 transplants at 5 μM) were cloned by limiting dilution. […]
For the growth inhibition assays, cells were seeded at a density of 3500 cells per well in 96 cluster tissue culture plates, and treated 24 hr after seeding with different concentrations of 4-oxo-4-HPR or 4-HPR. […] The survival of treated cells was calculated for the various drug concentrations as percentage of the survival of control cells. […]
Studies were performed to assess whether 4-oxo-4-HPR potentiates the tumor growth inhibitory effects of 4-HPR. […] The fractional survival (f) after 3 days of treatment was calculated for each experimental condition. […]
Background: Sulforhodamine B stains cellular protein and so reports cell mass.

Another assay relates to OAW42. The assay is described as follows: Growth inhibition (sulforhodamine B assay). In kind it is cell-based. The following applies: Homo sapiens, read-out: 50% Inhibitory Concentrations (IC50) at 72 h. The procedure:
(§1) The following human ovarian carcinoma cell lines were tested: A2780 was obtained from Dr. R. F. Ozols (National Cancer Institute, Bethesda, Md., USA); IGROV-1 was obtained from Dr. J. Benard (Villejuif, France); OVCA432 was obtained from Dr. R. C. Knapp (Boston, Mass., USA); OAW42 and SKOV-3 were purchased from ATCC (Rockville, Md., USA). A2780/HPR, a 4-HPR— resistant ovarian carcinoma cell line, was obtained in our laboratory by continuous exposure of A2780 cells to increasing concentrations of 4-EPR as previously described (Appierto et al., Br. J. Cancer, 2001, 84:1528–1534; Prinetti et al., J. Biol. Chem., 2003, 278:5574–5583). Briefly, cells surviving 60 transplants in 4-HPR —containing medium (3 transplants at 1 μM, 11 transplants at 2 μM, 8 transplants at 3 μM, and 38 transplants at 5 μM) were cloned by limiting dilution. […] Therefore, A2780/HPR cells were continuously maintained in 5 μM 4-HPR and seeded without 4-HPR in all the experiments performed to test their sensitivity to 4-oxo-4-HPR.
(§2) The following human breast tumor cell lines, obtained from Dr. R. Sutherland (Garvan Institute, Sydney, Australia) were tested: T-47D, BT-20 and MCF-7. The following human neuroblastoma cell lines, purchased from ATCC, were tested: SK-N-BE, SK-N-SH, SK-N-MC, and GI-LI-N. All cell lines were grown in monolayer, in medium containing 10% fetal bovine serum (Invitrogen) in 5% CO2 at 37° C. The medium for A2780, A2780/HPR, IGROV-1, OVCA432, SKOV-3, T-47D, BT-20, MCF-7, GI-LI-N and SK-N-BE cells was RPMI 1640 (Cambrex, Verviers, Belgium) and the medium for OAW42, SK-N-MC and SK-N-SH cells was EMEM (ATCC).
(§3) For the growth inhibition assays, cells were seeded at a density of 3500 cells per well in 96 cluster tissue culture plates, and treated 24 hr after seeding with different concentrations of 4-oxo-4-HPR or 4-HPR. 4-oxo-4-HPR was dissolved in absolute ethanol and 4-HPR (obtained from Dr. J. A. Crowell —NCI Bethesda, Md., USA) was dissolved in Me2SO. […] Control cultures received the same amount of ethanol or Me2SO as the treated cultures. 72 hr after treatment cell number was estimated by using the sulforhodamine B assay according to Monks et al., (J. Natl. Cancer, 1991, 11: 757–766). The survival of treated cells was calculated for the various drug concentrations as percentage of the survival of control cells. The antiproliferative activity of 4-oxo-4-HPR and 4-HPR in each cell line, was tested in three separate experiments and the average values ±SD are reported in FIGS. 2, 3, and 4.

The next assay relates to SKOV-3. The assay is described as follows: Growth inhibition (sulforhodamine B assay). The format is cell-based. The following applies: Homo sapiens, read-out: 50% Inhibitory Concentrations (IC50) at 72 h. The procedure: as §1, §2, §3
The test system of another assay is GI-LI-N. The assay is described as follows: Growth inhibition (sulforhodamine B assay). As to conditions: for IC50: Homo sapiens, 72 h, read-out: 50% Inhibitory Concentrations (IC50) at 72 h. The format is cell-based, human. The procedure: as §2, §3
A further assay concerns SK-N-BE. Briefly: Growth inhibition (sulforhodamine B assay). The format is cell-based, human. The following applies: for IC50: Homo sapiens, 72 h, read-out: 50% Inhibitory Concentrations (IC50) at 72 h. Here is the method: as §2, §3
Another assay has as its system SK-N-MC. The assay is described as follows: Growth inhibition (sulforhodamine B assay). In kind it is cell-based, human. The following applies: for IC50: Homo sapiens, 72 h, read-out: 50% Inhibitory Concentrations (IC50) at 72 h. Here is the method: as §2, §3
Another assay deals with SK-N-SH. Briefly: Growth inhibition (sulforhodamine B assay). The format is cell-based, human. As to conditions: for IC50: Homo sapiens, 72 h, read-out: 50% Inhibitory Concentrations (IC50) at 72 h. Here is the method:
as §2, §3

Another assay relates to SW626. Briefly: Antiproliferative effect, single agents and combination. In kind it is cell-based, human. As to conditions: single agent 1 μM, 72 h, single experiments. Here is the method:
as §3
The antiproliferative effect of the combination of the two drugs, administered at one single dose, was also tested in other ovarian carcinoma cell lines and in breast tumor cell lines. The type of interaction between 4-HPR and 4-oxo-4-HPR was assessed by the method of Drevinko et al., as described in Cancer Biochem. Biophys., 1976, 1:187–195. […] The combination index (CI) was calculated as follows: survival fraction (SF) of the combination of 4-HPR+4-oxo-4-HPR divided by (SF 4-HPR×SF 4-oxo-4-HPR). […]

A further assay has as its system A2780/HPR. Briefly: Apoptosis induction (Cell Death Detection ELISA, DNA fragmentation). The format is cell-based, human. As to conditions: 5 μM, 24 hr. Here is the method:
Although the mechanism of action of 4-HPR is not well understood, its tumor growth inhibitory effects have been attributed to apoptosis induction (Supino et al., Int. J. Cancer, 1996, 65:491–497). The apoptosis inducing effects of 4-oxo-4-HPR were compared with those of 4-HPR in the human ovarian carcinoma cell line A2780 and in its counterpart A2780/HPR, with induced resistance to 4-HPR. Apoptosis was evaluated by a Cell Death Detection ELISA Plus Assay Kit (Roche Diagnostic GmbH, Germany) according to the manufacturer's instructions. This assay quantitates the amount of cytoplasmic histone-associated DNA fragments which increases during apoptosis. Cells were seeded in 96-well cell culture plates and treated the day after with 5 μM 4-oxo-4-HPR or 4-HPR for 24 hr.

“And” between values parts separate entries of the source, which are not always exact repeats. Equal entries are not always repeated. Where two headings read alike, the source gives them in different places.

On to `CC1=C(/C=C/C(C)=C/C=C/C(C)=C/C(=O)Nc2ccc(O)cc2)C(C)(C)CCC1` [4-HPR, N-(4-hydroxyphenyl)retinamide, reference compound], for which the IC50 is 1500 nM with A2780 (A2780, 72 h, calculated from graphs); 10000 nM in the assay with OAW42 (OAW-42, OAW42, 72 h); 8000 nM in the assay on SKOV-3 (SK-OV-3, SKOV-3, 72 h); 700 nM in the assay with GI-LI-N (GI-LI-N); 5000 nM in the assay with SK-N-BE (SK-N-BE); 700 nM with SK-N-MC. For the same compound, the IC50 in the assay on SK-N-SH was found to be 5000 nM. Also, in the assay on SW626, the “Survival (% control cells)” value is 96 % control cells and 98 % control cells. For the same compound, the “induction of apoptosis (DNA fragmentation, fold versus control cells)” value in the assay with A2780/HPR is given as “had no effect”.

`CC1=C(/C=C/C(C)=C/C=C/C(C)=C/C(=O)Nc2ccc(O)cc2)C(C)(C)CCC1=O` [4-oxo-4-HPR, 4-oxo-N-(4-hydroxyphenyl)retinamide]: the IC50 with A2780 (A2780, 72 h) is 600 nM; in the assay with OAW42 (OAW-42, 72 h), 3000 nM; in the assay with SKOV-3 (SK-OV-3, 72 h) it was 2000 nM; in the assay with GI-LI-N, 600 nM; in the assay with SK-N-BE it was 1000 nM; in the assay on SK-N-MC, 400 nM. For the same compound, in the assay with SK-N-SH, the IC50 worked out at 3000 nM. Also, the “cell sensitivity (FIG. 4), compared with 4-HPR, in words” value with GI-LI-N (GI-LI-N, 72 hr) is given as “equally sensitive”; in the assay on SK-N-BE (SK-N-BE, 72 hr), “more sensitive to 4-oxo-HPR than to 4-HPR”; with SK-N-MC (72 hr), “more sensitive only at the lowest concentration tested (0.3 μM)”; with SK-N-SH (72 hr) it was “more sensitive to 4-oxo-HPR than to 4-HPR”. Besides, the “Survival (% control cells)” value with SW626 was 90 % control cells and 98 % control cells. In addition, the “induction of apoptosis (DNA fragmentation, fold versus control cells)” value in the assay with A2780/HPR is “induced apoptosis”.

The values above are taken from patent publication US7169813B2, “4-oxo-fenretinide, administered alone and in combination with fenretinide, as preventive and therapeutic agent for cancer” (Fondazione IRCCS “Istituto Nazionale Dei Tumori”, priority 2004, dated 2007).
